# Test results as given in ChEMBL document CHEMBL4118205, “Design, synthesis and biological evaluation of artemisinin derivatives containing fluorine atoms as anticancer agents” (Bioorg Med Chem Lett, 2018).
# Activity calls are given as the source filed them. No cut-off for these calls is given here.
# Tests used:
# MCF7 [1] = experiment: Induction of apoptosis in human MCF7 cells assessed as cell shrinkage up to 20 uM after 48 hrs by Hoechst 33258 staining based fluorescence microscopic method; format: functional
# MCF7 [2] = experiment: Cell cycle arrest in human MCF7 cells assessed as accumulation at G2 phase at 10 uM after 48 hrs by propidium iodide staining based flow cytometry (reference value: 13.24%); format: functional
# MCF7 [3] = experiment: Cell cycle arrest in human MCF7 cells assessed as accumulation at S phase at 2.5 uM after 48 hrs by propidium iodide staining based flow cytometry (reference value: 41.55%); format: functional
# MCF7 [4] = experiment: Induction of apoptosis in human MCF7 cells assessed as early apoptotic cells at 1 uM after 48 hrs by Annexin-V FITC/propidium iodide staining based flow cytometry (reference value: 0.50%); format: functional
# MCF7 [5] = experiment: Induction of apoptosis in human MCF7 cells assessed as late apoptotic cells at 20 uM after 48 hrs by Annexin-V FITC/propidium iodide staining based flow cytometry (reference value: 6.22%); format: functional
# MCF7 [6] = experiment: Induction of apoptosis in human MCF7 cells assessed as late apoptotic cells at 2.5 uM after 48 hrs by Annexin-V FITC/propidium iodide staining based flow cytometry (reference value: 6.22%); format: functional
# MCF7 [7] = experiment: Cell cycle arrest in human MCF7 cells assessed as accumulation at G2 phase at 1 uM after 48 hrs by propidium iodide staining based flow cytometry (reference value: 13.24%); format: functional
# MCF7 [8] = experiment: Induction of apoptosis in human MCF7 cells assessed as granular apoptotic body formation up to 20 uM after 48 hrs by Hoechst 33258 staining based fluorescence microscopic method; format: functional, cell-based
# A-375 = experiment: Cytotoxicity against human A375 cells assessed as reduction in cell viability after 72 hrs by MTT assay; format: functional, cell-based; conditions: A-375, 72 h
# MCF7 [9] = experiment: Cell cycle arrest in human MCF7 cells assessed as accumulation at G1 phase at 10 uM after 48 hrs by propidium iodide staining based flow cytometry (reference value: 45.21%); format: functional
compound,measurement,setting,value
C[C@H]1[C@H](N2CCN(C(=O)Nc3ccc(OC(F)(F)F)cc3)CC2)O[C@@H]2O[C@@]3(C)CC[C@H]4[C@H](C)CC[C@@H]1[C@@]24OO3,Activity,MCF7 [1],Active
same,Activity,MCF7 [2],7.3%
same,Activity,MCF7 [3],26.36%
same,Activity,MCF7 [4],0.48%
same,Activity,MCF7 [5],68.8%
same,Activity,MCF7 [6],19.17%
same,Activity,MCF7 [7],10.09%
same,Activity,MCF7 [8],Active
same,IC50,A-375,3.4 µM
same,Activity,MCF7 [9],83.5%
